# According to patent US20050276764A1, “Topical use of bis-arylimidazo[1,2-a]thiolane derivatives” (Beiersdorf AG, priority 2002, published 2005):
# Columns and labels:
# Assay type in all cases: cell-based
# 3T3 cells = assay: 3T3 NRU Phototoxicity Assay (COLIPA Validation Ring Study 1997), neutral red absorption; conditions: for NR50 irradiated / NR50 non-irradiated: 3T3 cells, concentration at which neutral red absorption has fallen to 50% of the check value; for NR50 irradiated: UV-irradiated cultures; for NR50 non-irradiated: non-irradiated cultures; for Quotient non-irradiated/irradiated PIF: ratio of NR50 non-irradiated to irradiated, the lower the quotient, the lower the phototoxicity; for Phototoxicity in comparison to the non-oxidized comparative compound: photocytotoxicity tests, versus 4,5-bis(4-methoxyphenyl)-imidazo[1,2-a]thiolane
# Protocol: The photocytotoxicity of 4,5-bis(4-methoxyphenyl)-imidazo[1,2-a]thiolane-1-oxide and 4,5-bis(4-methoxyphenyl)-imidazo[1,2-a]thiolane-1-dioxide in comparison to 4,5-bis(4-methoxyphenyl)-imidazo[1,2-a]thiolane according to standard protocol “3T3 NRU Phototoxicity Assay” of the COLIPA Validation Ring Study of 1997 is shown in FIG. 1.
# In the test method used, the change to the neutral red absorption of 3T3 cells is measured by UV irradiation. Only vital cells absorb the dye, a reduced absorption thus indicates a toxicity of the test substance added. The so-called NR50 value is typically determined for evaluation, i.e. those concentrations of the test substance for which the neutral red absorption has fallen to 50% of the check value. In order to determine the phototoxicity, this value is determined for non-irradiated and irradiated cultures and put in a ratio. The lower the quotient, the lower the phototoxicity (see Table 1).
# [1] = tested on: prostaglandin E2 (PGE2) production in human fibroblasts stimulated with LPS; assay: Inhibition of LPS-induced PGE2 production in human fibroblasts; conditions: for Inhibition of PGE2 production: human fibroblasts, LPS-stimulated, supernatant PGE2 24 hours later, FIG. 2
# Protocol: The influence of 4,5-bis(4-methoxyphenyl)-imidazo[1,2-a]thiolane-1-oxide and 4,5-bis(4-Methoxyphenyl)-imidazo[1,2-a]thiolane-1-dioxide in comparison to 4,5-bis(4-methoxyphenyl)-imidazo[1,2-a]thiolane on eicosanoid production is illustrated in FIG. 2. For the samples in FIG. 2, human fibroblasts were stimulated with LPS and 24 hours later the supernatant PGE2 content was determined. Either Diclofenac with standard effects or dilutions of DKH derivatives were added to the LPS-stimulated cultures. Non-stimulated cultures and cultures only stimulated with LPS were measured as a control test.
# Human fibroblasts in culture were induced to release prostaglandin E2 (PGE2) by means of lipopolysaccharide (LPS). Inhibition of this PGE2 production by imidazoles was then determined in the test.
# [2] = tested on: LTB4 release by human neutrophile granulocytes stimulated with fMLP; assay: Release of LTB4 by fMLP-stimulated human neutrophile granulocytes; conditions: for Inhibition of LTB4 release: human neutrophile granulocytes, fMLP-stimulated, supernatant LTB4 2 hours later, FIG. 3
# Protocol: A second test method was used to determine the influence of imidazoles on the release of LTB4 by stimulated granulocytes. Human neutrophile granulocytes from the peripheral blood were isolated, cultured and stimulated for LTB4 production with formylated methionyl-leucyl-phenylalanine (fMLP). Specifically, human neutrophile granulocytes were stimulated with fMLP and 2 hours later the supernatant LTB4 content was determined. Either BayX1005 with standard effects or dilutions of DKH derivatives were added to the fMLP-stimulated cultures. Non-stimulated cultures and cultures only stimulated with fMLP were measured as a control test.
SMILES,NR50 irradiated (3T3 cells),NR50 non-irradiated (3T3 cells),Quotient non-irradiated/irradiated PIF (3T3 cells),Phototoxicity in comparison to the non-oxidized comparative compound (3T3 cells),Production of prostaglandin E2 in fibroblasts [1],Inhibition of PGE2 production [1],Production of leukotriene B4 in granulocytes [2],Inhibition of LTB4 release [2]
"COc1ccc(-c2nc3n(c2-c2ccc(OC)cc2)CCS3)cc1 [4,5-bis(4-methoxyphenyl)-imidazo[1,2-a]thiolane, reference compound]",0.177 mg/L,>10 mg/L,>56,–,–,–,–,–
"COc1ccc(-c2nc3n(c2-c2ccc(OC)cc2)CCS3(=O)=O)cc1 [4,5-bis(4-methoxyphenyl)-imidazo[1,2-a]thiolane-1-dioxide]",7.77 mg/L,>50 mg/L,>6.4,considerably reduced phototoxicity,considerably reduced,sufficient inhibition in the concentration range below one microgram per millimeter,considerably reduced,improved inhibition of LTB4 release
"COc1ccc(-c2nc3n(c2-c2ccc(OC)cc2)CC[S+]3[O-])cc1 (stereo not shown) [4,5-bis(4-methoxyphenyl)-imidazo[1,2-a]thiolane-1-oxide]",>42.3 mg/L,>100 mg/L,>2.4,considerably reduced phototoxicity,considerably reduced,sufficient inhibition in the concentration range below one microgram per millimeter,considerably reduced,improved inhibition of LTB4 release
